From ChEMBL document CHEMBL6127107, “Oleanolic acid derivatives against drug-resistant bacteria and fungi by multi-targets to avoid drug resistance” (Eur J Med Chem, 2024)
Values after ≈ are worked out from the molar mass of the structure shown.

Key:
Staphylococcus aureus [1] = assay: Antimicrobial activity against methicillin-resistant Staphylococcus aureus 011; assay type: functional
Enterococcus faecalis = assay: Antimicrobial activity against vancomycin resistant Enterococcus faecalis ATCC 51299; assay type: functional
[2] = Hemolytic activity against Mianyang red blood cells (unknown origin); assay type: toxicity, cell-based, RBC
Candida albicans = assay: Antimicrobial activity against fluconazole-resistant Candida albicans; assay type: functional
Escherichia coli = assay: Antimicrobial activity against Escherichia coli; assay type: functional
Pseudomonas aeruginosa = assay: Antimicrobial activity against Pseudomonas aeruginosa; assay type: functional
Staphylococcus aureus [3] = assay: Antimicrobial activity against Staphylococcus aureus 31; assay type: functional
Staphylococcus aureus [4] = assay: Antimicrobial activity against Staphylococcus aureus 29; assay type: functional
Staphylococcus aureus [5] = assay: Antimicrobial activity against methicillin-resistant Staphylococcus aureus 003; assay type: functional
[6] = Selectivity index, ratio of HC50 for hemolytic activity against Mianyang red blood cells (unknown origin) to MIC for antimicrobial activity against methicillin resistant Staphylococcus aureus 003; assay type: toxicity, cell-based, RBC; settings: read-out: Selectivity Index
Staphylococcus aureus [7] = assay: Antimicrobial activity against Staphylococcus aureus 10; assay type: functional

Compound | MIC (Staphylococcus aureus [1]) | MIC (Enterococcus faecalis) | HC50 [2] | MIC (Candida albicans) | MIC (Escherichia coli) | MIC (Pseudomonas aeruginosa) | MIC (Staphylococcus aureus [3]) | MIC (Staphylococcus aureus [4]) | MIC (Staphylococcus aureus [5]) | selectivity ratio [6] | MIC (Staphylococcus aureus [7])
CC1(C)CC[C@]2(C(=O)O)CC[C@]3(C)C(=CC[C@@H]4[C@@]5(C)CC[C@H](OCC(O)CCCCN)C(C)(C)[C@@H]5CC[C@]43C)[C@@H]2C1 (some centres undefined) | 4 µg/mL (≈ 6.99 µM) | 8 µg/mL (≈ 14 µM) | 26.1 µg/mL | 16 µg/mL (≈ 28 µM) | > 64 µg/mL | > 64 µg/mL | 8 µg/mL (≈ 14 µM) | 4 µg/mL (≈ 6.99 µM) | 4 µg/mL (≈ 6.99 µM) | 6.54 | 4 µg/mL (≈ 6.99 µM)
CC1(C)CC[C@]2(C(=O)O)CC[C@]3(C)C(=CC[C@@H]4[C@@]5(C)CC[C@H](OCC(O)CCCCCCCCN)C(C)(C)[C@@H]5CC[C@]43C)[C@@H]2C1 (some centres undefined) | 8 µg/mL (≈ 12.7 µM) | 16 µg/mL (≈ 25.5 µM) | 25.2 µg/mL | 32 µg/mL (≈ 51 µM) | > 64 µg/mL | > 64 µg/mL | 32 µg/mL (≈ 51 µM) | 8 µg/mL (≈ 12.7 µM) | 8 µg/mL (≈ 12.7 µM) | 3.15 | 8 µg/mL (≈ 12.7 µM)
CC1(C)CC[C@]2(C(=O)O)CC[C@]3(C)C(=CC[C@@H]4[C@@]5(C)CC[C@H](OC(=O)CCCC(=O)O)C(C)(C)[C@@H]5CC[C@]43C)[C@@H]2C1 | 32 µg/mL (≈ 56.1 µM) | 32 µg/mL (≈ 56.1 µM) | > 1020 µg/mL | 32 µg/mL (≈ 56.1 µM) | > 64 µg/mL | > 64 µg/mL | 64 µg/mL (≈ 112 µM) | 32 µg/mL (≈ 56.1 µM) | 32 µg/mL (≈ 56.1 µM) | > 32 | 32 µg/mL (≈ 56.1 µM)
CN(C)CC(O)CO[C@H]1CC[C@]2(C)[C@H]3CC=C4[C@@H]5CC(C)(C)CC[C@]5(C(=O)O)CC[C@@]4(C)[C@]3(C)CC[C@H]2C1(C)C (some centres undefined) | > 64 µg/mL | > 64 µg/mL | – | > 64 µg/mL | > 64 µg/mL | > 64 µg/mL | > 64 µg/mL | > 64 µg/mL | > 64 µg/mL | – | > 64 µg/mL
CCCCCOC(=O)[C@]12CCC(C)(C)C[C@H]1C1=CC[C@@H]3[C@@]4(C)CC[C@H](O)C(C)(C)[C@@H]4CC[C@@]3(C)[C@]1(C)CC2 | > 64 µg/mL | > 64 µg/mL | – | > 64 µg/mL | > 64 µg/mL | > 64 µg/mL | > 64 µg/mL | > 64 µg/mL | > 64 µg/mL | – | > 64 µg/mL
CC1(C)CC[C@]2(C(=O)O)CC[C@]3(C)C(=CC[C@@H]4[C@@]5(C)CC[C@H](OCC(O)CCCCNC(=N)N)C(C)(C)[C@@H]5CC[C@]43C)[C@@H]2C1 (some centres undefined) | 2 µg/mL (≈ 3.26 µM) | 4 µg/mL (≈ 6.52 µM) | 660 µg/mL | 4 µg/mL (≈ 6.52 µM) | > 64 µg/mL | > 64 µg/mL | 8 µg/mL (≈ 13 µM) | 8 µg/mL (≈ 13 µM) | 2 µg/mL (≈ 3.26 µM) | 330 | 8 µg/mL (≈ 13 µM)
CC(=O)O[C@H]1CC[C@]2(C)[C@H]3CC=C4[C@@H]5CC(C)(C)CC[C@]5(C(=O)NCCCCN)CC[C@@]4(C)[C@]3(C)CC[C@H]2C1(C)C | 2 µg/mL (≈ 3.52 µM) | 4 µg/mL (≈ 7.03 µM) | 65.8 µg/mL | 4 µg/mL (≈ 7.03 µM) | > 64 µg/mL | > 64 µg/mL | 8 µg/mL (≈ 14.1 µM) | 8 µg/mL (≈ 14.1 µM) | 4 µg/mL (≈ 7.03 µM) | 16.5 | 8 µg/mL (≈ 14.1 µM)
CC1(C)CC[C@]2(C(=O)O)CC[C@]3(C)C(=CC[C@@H]4[C@@]5(C)CC[C@H](OCC(O)CNCc6ccoc6)C(C)(C)[C@@H]5CC[C@]43C)[C@@H]2C1 (some centres undefined) | > 64 µg/mL | > 64 µg/mL | – | > 64 µg/mL | > 64 µg/mL | > 64 µg/mL | > 64 µg/mL | > 64 µg/mL | > 64 µg/mL | – | > 64 µg/mL
CC1(C)S[C@@H]2[C@H](NC(=O)[C@H](N)c3ccccc3)C(=O)N2[C@H]1C(=O)O [AMPICILLIN] | > 128 µg/mL | 2 µg/mL (≈ 5.72 µM) | > 256 µg/mL | – | – | – | 2 µg/mL (≈ 5.72 µM) | 2 µg/mL (≈ 5.72 µM) | > 128 µg/mL | – | 2 µg/mL (≈ 5.72 µM)
CCCCCCC(=O)O[C@H]1CC[C@]2(C)[C@H]3CC=C4[C@@H]5CC(C)(C)CC[C@]5(C(=O)O)CC[C@@]4(C)[C@]3(C)CC[C@H]2C1(C)C | > 64 µg/mL | > 64 µg/mL | – | > 64 µg/mL | > 64 µg/mL | > 64 µg/mL | > 64 µg/mL | > 64 µg/mL | > 64 µg/mL | – | > 64 µg/mL
CCCCC(=O)O[C@H]1CC[C@]2(C)[C@H]3CC=C4[C@@H]5CC(C)(C)CC[C@]5(C(=O)O)CC[C@@]4(C)[C@]3(C)CC[C@H]2C1(C)C | > 64 µg/mL | > 64 µg/mL | – | > 64 µg/mL | > 64 µg/mL | > 64 µg/mL | > 64 µg/mL | > 64 µg/mL | > 64 µg/mL | – | > 64 µg/mL
CCCOC(=O)[C@]12CCC(C)(C)C[C@H]1C1=CC[C@@H]3[C@@]4(C)CC[C@H](O)C(C)(C)[C@@H]4CC[C@@]3(C)[C@]1(C)CC2 | > 64 µg/mL | > 64 µg/mL | – | > 64 µg/mL | > 64 µg/mL | > 64 µg/mL | > 64 µg/mL | > 64 µg/mL | > 64 µg/mL | – | > 64 µg/mL
CC1(C)CC[C@]2(C(=O)O)CC[C@]3(C)C(=CC[C@@H]4[C@@]5(C)CC[C@H](OC(=O)CCC(=O)O)C(C)(C)[C@@H]5CC[C@]43C)[C@@H]2C1 [OLEANOLIC ACID 3-O-SUCCINATE] | 16 µg/mL (≈ 28.7 µM) | 32 µg/mL (≈ 57.5 µM) | > 1020 µg/mL | 32 µg/mL (≈ 57.5 µM) | > 64 µg/mL | > 64 µg/mL | 32 µg/mL (≈ 57.5 µM) | 8 µg/mL (≈ 14.4 µM) | 16 µg/mL (≈ 28.7 µM) | > 64 | 16 µg/mL (≈ 28.7 µM)
CCCCCCCCCOC(=O)[C@]12CCC(C)(C)C[C@H]1C1=CC[C@@H]3[C@@]4(C)CC[C@H](O)C(C)(C)[C@@H]4CC[C@@]3(C)[C@]1(C)CC2 | > 64 µg/mL | > 64 µg/mL | – | > 64 µg/mL | > 64 µg/mL | > 64 µg/mL | > 64 µg/mL | > 64 µg/mL | > 64 µg/mL | – | > 64 µg/mL
CC1(C)CC[C@]2(C(=O)O)CC[C@]3(C)C(=CC[C@@H]4[C@@]5(C)CC[C@H](OC(=O)c6ccccc6C(=O)O)C(C)(C)[C@@H]5CC[C@]43C)[C@@H]2C1 | 32 µg/mL (≈ 52.9 µM) | 16 µg/mL (≈ 26.5 µM) | > 1020 µg/mL | 8 µg/mL (≈ 13.2 µM) | > 64 µg/mL | > 64 µg/mL | 64 µg/mL (≈ 106 µM) | 32 µg/mL (≈ 52.9 µM) | 32 µg/mL (≈ 52.9 µM) | > 32 | 16 µg/mL (≈ 26.5 µM)
OC(Cn1cncn1)(Cn1cncn1)c1ccc(F)cc1F [FLUCONAZOLE] | – | – | > 256 µg/mL | > 128 µg/mL | – | – | – | – | – | – | –
CCNCC(O)CO[C@H]1CC[C@]2(C)[C@H]3CC=C4[C@@H]5CC(C)(C)CC[C@]5(C(=O)O)CC[C@@]4(C)[C@]3(C)CC[C@H]2C1(C)C (some centres undefined) | > 64 µg/mL | > 64 µg/mL | – | > 64 µg/mL | > 64 µg/mL | > 64 µg/mL | > 64 µg/mL | > 64 µg/mL | > 64 µg/mL | – | > 64 µg/mL
CCCCCCCCCCCCC(=O)O[C@H]1CC[C@]2(C)[C@H]3CC=C4[C@@H]5CC(C)(C)CC[C@]5(C(=O)O)CC[C@@]4(C)[C@]3(C)CC[C@H]2C1(C)C | > 64 µg/mL | > 64 µg/mL | – | > 64 µg/mL | > 64 µg/mL | > 64 µg/mL | > 64 µg/mL | > 64 µg/mL | > 64 µg/mL | – | > 64 µg/mL
CC1(C)CC[C@]2(C(=O)O)CC[C@]3(C)C(=CC[C@@H]4[C@@]5(C)CC[C@H](OCC(O)CN6CCCCC6)C(C)(C)[C@@H]5CC[C@]43C)[C@@H]2C1 (some centres undefined) | > 64 µg/mL | > 64 µg/mL | – | > 64 µg/mL | > 64 µg/mL | > 64 µg/mL | > 64 µg/mL | > 64 µg/mL | > 64 µg/mL | – | > 64 µg/mL
CCCCCCCCC(=O)O[C@H]1CC[C@]2(C)[C@H]3CC=C4[C@@H]5CC(C)(C)CC[C@]5(C(=O)O)CC[C@@]4(C)[C@]3(C)CC[C@H]2C1(C)C | > 64 µg/mL | > 64 µg/mL | – | > 64 µg/mL | > 64 µg/mL | > 64 µg/mL | > 64 µg/mL | > 64 µg/mL | > 64 µg/mL | – | > 64 µg/mL
CC(=O)O[C@H]1CC[C@]2(C)[C@H]3CC=C4[C@@H]5CC(C)(C)CC[C@]5(C(=O)NCc5ccc(F)cc5)CC[C@@]4(C)[C@]3(C)CC[C@H]2C1(C)C | > 64 µg/mL | > 64 µg/mL | – | > 64 µg/mL | > 64 µg/mL | > 64 µg/mL | > 64 µg/mL | > 64 µg/mL | > 64 µg/mL | – | > 64 µg/mL
CC(=O)O[C@H]1CC[C@]2(C)[C@H]3CC=C4[C@@H]5CC(C)(C)CC[C@]5(C(=O)N5CCCCC5)CC[C@@]4(C)[C@]3(C)CC[C@H]2C1(C)C | > 64 µg/mL | > 64 µg/mL | – | > 64 µg/mL | > 64 µg/mL | > 64 µg/mL | > 64 µg/mL | > 64 µg/mL | > 64 µg/mL | – | > 64 µg/mL
C[C@@H]1[C@H](O)[C@@H](C)/C=C/C=C/C=C/C=C/C=C/C=C/C=C/[C@H](O[C@@H]2O[C@H](C)[C@@H](O)[C@H](N)[C@@H]2O)C[C@@H]2O[C@](O)(C[C@@H](O)C[C@@H](O)[C@H](O)CC[C@@H](O)C[C@@H](O)CC(=O)O[C@H]1C)C[C@H](O)[C@H]2C(=O)O [AMPHOTERICIN B] | – | – | 29.2 µg/mL | 1 µg/mL (≈ 1.08 µM) | – | – | – | – | – | 29.2 | –
CC(=O)O[C@H]1CC[C@]2(C)[C@H]3CC=C4[C@@H]5CC(C)(C)CC[C@]5(C(=O)NCc5ccoc5)CC[C@@]4(C)[C@]3(C)CC[C@H]2C1(C)C | > 64 µg/mL | > 64 µg/mL | – | > 64 µg/mL | > 64 µg/mL | > 64 µg/mL | > 64 µg/mL | > 64 µg/mL | > 64 µg/mL | – | > 64 µg/mL
CC1(C)CC[C@]2(C(=O)O)CC[C@]3(C)C(=CC[C@@H]4[C@@]5(C)CC[C@H](O)C(C)(C)[C@@H]5CC[C@]43C)[C@@H]2C1 [OLEANOLIC_ACID] | > 64 µg/mL | 64 µg/mL (≈ 140 µM) | > 1020 µg/mL | > 64 µg/mL | – | – | 32 µg/mL (≈ 70.1 µM) | 64 µg/mL (≈ 140 µM) | 64 µg/mL (≈ 140 µM) | > 16 | 64 µg/mL (≈ 140 µM)
